From publication PMC3199943, “Screening the MayBridge Rule of 3 Fragment Library for Compounds That Interact with the Trypanosoma brucei myo-Inositol-3-Phosphate Synthase and/or Show Trypanocidal Activity” (Molecular Biology International, 2011)
Read-outs that look alike come from different tables or passages of the source.

Columns and labels:
[1] = tested on: A549 cells; assay: Cytotoxicity against A549 cells, Alamar Blue; format: cell-based; conditions: Homo sapiens, A549, 65 h; Supplementary Table 1; compound 0.5 mM; percentage of controls (n=1)
Method in brief: (§1)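 Alamar Blue read-out after a 5 h dye incubation that followed ~65 h compound exposure. Cells: HeLa or A549, 2 × 10^4/well, DMEM + 10% FCS + 2 mM L-Glutamine.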

[2] = tested on: HeLa cells; assay: cells; conditions: Homo sapiens, HeLa, 65 h
Method in brief: as §1

[3] = target: T1, TbINO1 (Trypanosoma brucei brucei, UniProt Q5QQ46); assay: biochemical; format: binding
T1 sequence (Q5QQ46 1-528): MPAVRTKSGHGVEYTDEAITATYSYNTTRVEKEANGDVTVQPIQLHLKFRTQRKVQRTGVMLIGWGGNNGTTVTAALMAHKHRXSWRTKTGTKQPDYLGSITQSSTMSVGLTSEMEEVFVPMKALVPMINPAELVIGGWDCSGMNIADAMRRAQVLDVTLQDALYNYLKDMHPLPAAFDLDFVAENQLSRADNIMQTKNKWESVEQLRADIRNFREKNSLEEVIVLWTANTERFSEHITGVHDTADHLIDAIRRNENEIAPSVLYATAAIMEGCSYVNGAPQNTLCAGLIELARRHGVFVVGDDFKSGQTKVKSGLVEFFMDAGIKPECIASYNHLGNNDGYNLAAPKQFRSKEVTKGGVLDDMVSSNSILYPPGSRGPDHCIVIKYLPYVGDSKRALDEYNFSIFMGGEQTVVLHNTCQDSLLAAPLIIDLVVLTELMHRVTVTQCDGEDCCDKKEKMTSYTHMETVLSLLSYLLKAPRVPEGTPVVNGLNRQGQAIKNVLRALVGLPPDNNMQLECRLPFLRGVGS

[4] = read-out: HeLa Cells Alamar Blue
[5] = read-out: Tb Ino1 Tm Shift [˚C]

Row | ΔTm at 1000 µM [3, 5] | ΔTm at 1000 µM ([3]; read-out: TbIno1 Tm shift [°C]) | Compound | viability at 500 µM [1] | viability at 500 µM [2, 4] | viability at 500 µM ([2]; read-out: HeLa Cells Alamar Blue (% survival))
1 | 0.13 ± 0.07 °C |  | Cc1ccc(O)c(C)n1 [compound 64, 2,6‐dimethylpyridin‐3‐ol] | 80.6% | 103 ± 13.2% | 
2 | 0.78 ± 0.05 °C |  | Nc1ccc2occc2c1 [compound 100, 1‐benzofuran‐5‐amine] | 110% | 80.2 ± 12.5% | 
3 | 0.7 ± 0.08 °C |  | Cc1[nH]c2ccc(C(=O)O)cc2c1C [compound 537, 2,3‐dimethyl‐1H‐indole‐5‐carboxylic acid] | 74.5% | 89.3 ± 2.4% | 
4 |  | 1.64 ± 0.09 °C | COC(=O)c1ccoc1C [compound 132, methyl 2-methyl-3-furoate] | 100% | 71.3 ± 11.3% | 71.3 ± 11.3%
5 | 1.27 ± 0.07 °C |  | Cc1oc(-c2ccccc2)cc1CO [compound 521, (2‐methyl‐5‐phenyl‐3‐furyl)methanol] | 57.1% | 41.5 ± 15% | 
